Read-outs that look alike come from different tables or passages of the source.
Tested on: influenza virus A/Taiwan/1/86 (H1N1)
Experiment: organism not typed
Type: cell-based
Conditions: 72 h, MDCK cells infected by influenza A/Taiwan/1/86 (H1N1), three days post-virus exposure, ATP levels
[1] = read-out: FLU-AVE-MDCK-ATP-TW_EC50
[2] = read-out: FLU-AVE-MDCK-ATP-TW_pEC50 (converted)

SMILES	EC50 [1]	EC50 [2]
CC(C)(c1cccs1)C(CC(=O)O)Nc1nc(-c2c[nH]c3ncc(Cl)cc23)c(C#N)cc1F (stereo not drawn)	0.57 nM	0.631 nM
CC(C)(c1cccs1)C(CC(=O)O)Nc1nc(-c2c[nH]c3ncc(Cl)cc23)ncc1F (stereo not drawn)	2.54 nM	2.51 nM
CC(C)(c1nccs1)C(CC(=O)O)Nc1nc(-c2c[nH]c3ncc(Cl)cc23)c(C#N)cc1F (stereo not drawn)	0.267 nM	0.251 nM
Cn1ccc(C(C)(C)C(CC(=O)O)Nc2nc(-c3c[nH]c4ncc(Cl)cc34)c(C#N)cc2F)n1 (stereo not drawn)	2.56 nM	2.51 nM
CC1(C(CC(=O)O)Nc2nc(-c3c[nH]c4ncc(Cl)cc34)ncc2F)COC1 (stereo not drawn)	982 nM	1000 nM
C=CCC(C)(C)C(CC(=O)O)Nc1nc(-c2c[nH]c3ncc(Cl)cc23)c(C#N)cc1F (stereo not drawn)	1 nM	1 nM
CC(C)(c1ccccn1)C(CC(=O)O)Nc1nc(-c2c[nH]c3ncc(Cl)cc23)c(C#N)cc1F (stereo not drawn)	0.47 nM	–
CC(C)(c1ccccn1)C(CC(=O)O)Nc1nc(-c2c[nH]c3ncncc23)ncc1F (stereo not drawn)	1890 nM	–
CC(C)(c1ccccn1)[C@H](CC(=O)O)Nc1nc(-c2c[nH]c3ncc(Cl)cc23)c(C#N)cc1F (single isomer, unassigned)	0.075 nM	0.00631 nM
CC(C)(c1ccccn1)[C@@H](CC(=O)O)Nc1nc(-c2c[nH]c3ncc(Cl)cc23)c(C#N)cc1F (single isomer, unassigned)	5.4 nM	5.01 nM
